Experimental data published in EP1021178B1, “SELENOPHENE ANTI-TUMOR AGENTS” (Purdue Research Foundation, priority 1996, dated 1997).

Legend:
Test in all cases: NCI human tumor cell panel
NCI-H23 = details: for CC50: NCI-H23, read-out: Log10 LC50 (converted)
SF-295 = details: for CC50: SF-295, read-out: Log10 LC50 (converted)
OVCAR-4 = format: cell-based; details: OVCAR-4, read-out: Log10 LC50 (converted)
PC-3 = format: cell-based; details: PC-3, read-out: Log10 LC50 (converted)
SK-MEL-2 = format: cell-based; details: SK-MEL-2, read-out: Log10 LC50 (converted)
NCI-H460 = format: cell-based; details: NCI-H460, read-out: Log10 LC50 (converted)
M14 = format: cell-based; details: M14, read-out: Log10 LC50 (converted)
HS 578T = format: cell-based; details: read-out: Log10 LC50 (converted)
NCI-H522 = format: cell-based; details: NCI-H522, read-out: Log10 LC50 (converted)
HOP-92 = format: cell-based; details: HOP-92, read-out: Log10 LC50 (converted)
LOX IMVI = format: cell-based; details: read-out: Log10 LC50 (converted)
RPMI-8226 = format: cell-based; details: RPMI-8226, read-out: Log10 LC50 (converted)
NCI-H322M = format: cell-based; details: read-out: Log10 LC50 (converted)
MOLT-4 = format: cell-based; details: MOLT-4, read-out: Log10 LC50 (converted)
UACC-62 = format: cell-based; details: UACC-62, read-out: Log10 LC50 (converted)
HCC-2998 = format: cell-based; details: HCC 2998, read-out: Log10 LC50 (converted)
786-0 = format: cell-based; details: 786-0, read-out: Log10 LC50 (converted)
IGROV1 = format: cell-based; details: IGROV-1, read-out: Log10 LC50 (converted)
SR = format: cell-based; details: read-out: Log10 LC50 (converted)
ACHN = format: cell-based; details: read-out: Log10 LC50 (converted)
EKVX = details: for CC50: read-out: Log10 LC50 (converted)

| Structure (SMILES) | CC50 (NCI-H23) [µM] | CC50 (SF-295) [µM] | CC50 (OVCAR-4) [µM] | CC50 (PC-3) [µM] | CC50 (SK-MEL-2) [µM] | LC50 (concentration killing 50% of cells) (NCI-H460) [µM] | CC50 (M14) [µM] | CC50 (HS 578T) [µM] | CC50 (NCI-H522) [µM] | CC50 (HOP-92) [µM] | CC50 (LOX IMVI) [µM] | CC50 (RPMI-8226) [µM] | LC50 (concentration killing 50% of cells) (NCI-H322M) [µM] | CC50 (MOLT-4) [µM] | CC50 (UACC-62) [µM] | CC50 (HCC-2998) [µM] | CC50 (786-0) [µM] | CC50 (IGROV1) [µM] | CC50 (SR) [µM] | CC50 (ACHN) [µM] | other results |
| --- | --- | --- | --- | --- | --- | --- | --- | --- | --- | --- | --- | --- | --- | --- | --- | --- | --- | --- | --- | --- | --- |
| OCc1ccc(-c2ccc(-c3ccc(CO)[se]3)[se]2)[se]1 | 95.5 | 70.8 | 49 | 35.5 | 69.2 | 81.3 | 49 | 46.8 | 7.08 | 55 | > 100 | > 100 | 52.5 | > 100 | 44.7 | 12.6 | 70.8 | 30.2 | > 100 | > 100 | CC50 (EKVX): > 100 µM |
| O=Cc1ccc(-c2ccc(-c3ccc(C=O)[se]3)s2)[se]1 | > 100 | > 100 | > 100 | > 100 | > 100 | > 100 | > 100 | > 100 | > 100 | > 100 | > 100 | > 100 | > 100 | > 100 | > 100 | > 100 | > 100 | > 100 | > 100 | > 100 | CC50 (EKVX): > 100 µM; IC (TGI) (EKVX; read-out: Log10 TGI): > 100 µM |
| O=Cc1ccc(-c2ccc(-c3ccc(C=O)s3)[se]2)s1 | > 100 | > 100 | > 100 | > 100 | > 100 | > 100 | > 100 | > 100 | > 100 | > 100 | > 100 | > 100 | > 100 | > 100 | > 100 | 74.1 | > 100 | > 100 | > 100 | > 100 | CC50 (EKVX): > 100 µM |
| OCc1ccc(-c2ccc(-c3ccc[se]3)s2)[se]1 | 91.2 | > 100 | > 100 | > 100 | > 100 | > 100 | > 100 | > 100 | 55 | > 100 | 85.1 | > 100 | > 100 | > 100 | > 100 | > 100 | > 100 | 51.3 | > 100 | > 100 | CC50 (EKVX): > 100 µM |
| OCc1ccc(-c2ccc(-c3ccc(CO)[se]3)s2)s1 | > 100 | > 100 | 81.3 | > 100 | > 100 | 28.8 | > 100 | > 100 | > 100 | > 100 | 56.2 | > 100 | > 100 | > 100 | > 100 | 44.7 | 57.5 | 28.2 | > 100 | > 100 | CC50 (EKVX): > 100 µM |
| O=Cc1ccc(-c2ccc(-c3ccc(C=O)[se]3)s2)s1 | > 100 | > 100 | > 100 | > 100 | > 100 | > 100 | > 100 | > 100 | > 100 | > 100 | > 100 | > 100 | > 100 | > 100 | > 100 | > 100 | 64.6 | 91.2 | > 100 | > 100 | IC (TGI) (NCI-H23; NCI-H23, read-out: Log10 TGI): > 100 µM; IC (TGI) (SF-295; SF-295, read-out: Log10 TGI): > 100 µM; CC50 (EKVX): > 100 µM |
| OCc1ccc(-c2ccc(-c3cccs3)[se]2)s1 | > 100 | > 100 | > 100 | > 100 | > 100 | > 100 | > 100 | > 100 | > 100 | > 100 | > 100 | > 100 | > 100 | > 100 | > 100 | 9.77 | > 100 | 16.2 | > 100 | > 100 | CC50 (EKVX): > 100 µM |
